In patent US20120197059A1, “UBIQUITIN INTERACTING MOTIF PEPTIDES AS CANCER THERAPEUTICS” (priority 2011, published 2012):

Legend:
[1] = in vivo; cited from earlier work
[2] = free acid; cited from earlier work
[3] = tested on: VEGFR-2; assay: VEGF signaling assay with Dynasore, western blotting; type: cell-based, human; settings: HUVEC, 40 or 80 μM Dynasore, VEGF-A 50 ng/ml
[4] = tested on: gliomas; settings: given before, at the time of or after tumor implantation; cited from earlier work
[5] = cited from earlier work
[6] = tested on: DKO MECs; assay: BrdU labeling of mouse endothelial cells; type: cell-based
Method: BrdU labeling. BrdU labeling of Mouse Endothelial Cells. WT and DKO MECs were grown in a 48-well plate until they reached 50% percent confluency. Cells were starved overnight and stimulated with growth factors or growth factors plus inhibitors for 6 h. BrdU labeling and detection kit (Roche) was then used to label the proliferating cells. Briefly, cells were incubated with BrdU labeling medium (1:500 diluted in medium) for 3 h. Cells were washed three times with wash buffer and fixed with ethanol for 20 min at −20° C. followed by washing the cells three times with wash buffer and incubated with 6M HCl/0.1% Triton for 30 minutes at room temperature. This was followed by six washes with PBS/0.1% Triton. Cells were blocked with PBS/0.3% Triton/3% BSA/3% donkey serum for 30 min at room temperature followed by incubation with anti-BrdU working solution for 30 minutes at 37° C. After three washes with wash buffer cells were again incubated with donkey anti-mouse Ig-fluorescein for 30 minutes at 37° C. After washing the cells three times with wash buffer they were stained with DAPI and visualized using Olympus Fluorescent microscope. Percentage of proliferating cells was calculated based on the ratio of BrdU-positive cells versus DAPI-positive cells.

[7] = tested on: retina angiogenesis; assay: Retinal angiogenic sprouting in EC-iDKO P6 pups, isolectin B4 staining; type: in vivo, mice; settings: IP/intraocular injection
Method: Immunohistochemistry and immunofluorescence of tissue samples. Immunohistochemistry and immunofluorescence were performed as described with modifications (Chen et al., 1998; Chen et al., 2009). • E9/10 Hind Brain: Embryos were harvested at E9 or E10 and fixed. Hindbrain was harvested and processed for staining with anti-CD31 and donkey anti-rat Alex Fluor 488 secondary antibody. • P6 Skin: Wild-type or EC-iDKO pups were injected intraperitoneally with 5 mg/kg (body weight) of 4-hydroxytamoxifen (10 mg/ml of 4-Hydroxytamoxifen resuspended in 10% of ethanol and 90% of DMSO) per day from postnatal day 1 (P1) to P3. Pups were euthanized at P6 and skin from abdomen was harvested and processed for whole mount staining with anti-CD31 and donkey anti-rat Alexa Fluor 488 secondary antibody. • P6 Retina: Wild-type or EC-iDKO Pups were injected with 4-hydroxytamoxifen as described above per day from postnatal day 2 (P2) to P4. P6 pups were euthanized and whole eyes harvested. […]
Receptor tyrosine kinase inhibitors injection. […] For western blot analysis, skin and heart tissues were collected from WT P6 pups injected either with DMSO or inhibitors and analyzed for phospho-Akt and total Akt.

In the case of `CC(C)(C)[N+]([O-])=Cc1ccc(S(=O)(=O)O)cc1S(=O)(=O)O` [2,4-ds PBN, 2,4-disulfonyl phenyl-tert-butyl nitrone], the “efficacy as compared to PBN” value [1] is given as “unexpected increase”, the “potency as compared to PBN” value [1] is given as “increase in potency” and the “toxicity as compared to PBN” value [1] is given as “marked and highly significant decrease”. For the same compound, the solubility in water [2] was “greater than 1 gram/ml”.
For `O=C(N/N=C/c1ccc(O)c(O)c1)c1cc2ccccc2cc1O` [Dynasore], the “total levels of VEGFR-2 and phosphorylation of VEGFR-2 and its downstream signaling effectors” value [3] was “dramatically increased”.
In the case of `CC(C)(C)[N+]([O-])=Cc1ccccc1` [PBN, phenyl N-tert-butyl nitrone], the glioma tumor development [4] is listed as “able to control tumor development”, the tissue distribution ([5]; rat, in vivo) is listed as “readily and rapidly distributed almost equally to all tissues” and the half-life ([5]; rats) is listed as “about 132 minutes”.
With `CC(C)c1cc(/C=C(\C#N)C(=O)NCCCc2ccccc2)cc(C(C)C)c1O` [inhibitors to VEGFR-2] the “VEGF-increased proliferation of DKO MECs” value [6] was “abrogated” and the “elevated angiogenic sprouting in EC-iDKO retina” value [7] was “reversed”.
